Experimental data taken from patent publication US11667621B2, “Antiestrogen compounds” (STEVENS INSTITUTE OF TECHNOLOGY, priority 2018, dated 2023).
Where a chain is given by its changes, count along the chain named.

Assays:
[1] = target: T1, full length human estrogen receptor a (Homo sapiens, UniProt P03372); assay: Competitive radiometric binding assay (RBA), tritiated estradiol tracer; settings: relative to estradiol = 100; average SD of 2-3 determinations
T1 construct: purified, full-length human estrogen receptor a from Invitrogen; purchased Invitrogen
T1 sequence (P03372 1-595): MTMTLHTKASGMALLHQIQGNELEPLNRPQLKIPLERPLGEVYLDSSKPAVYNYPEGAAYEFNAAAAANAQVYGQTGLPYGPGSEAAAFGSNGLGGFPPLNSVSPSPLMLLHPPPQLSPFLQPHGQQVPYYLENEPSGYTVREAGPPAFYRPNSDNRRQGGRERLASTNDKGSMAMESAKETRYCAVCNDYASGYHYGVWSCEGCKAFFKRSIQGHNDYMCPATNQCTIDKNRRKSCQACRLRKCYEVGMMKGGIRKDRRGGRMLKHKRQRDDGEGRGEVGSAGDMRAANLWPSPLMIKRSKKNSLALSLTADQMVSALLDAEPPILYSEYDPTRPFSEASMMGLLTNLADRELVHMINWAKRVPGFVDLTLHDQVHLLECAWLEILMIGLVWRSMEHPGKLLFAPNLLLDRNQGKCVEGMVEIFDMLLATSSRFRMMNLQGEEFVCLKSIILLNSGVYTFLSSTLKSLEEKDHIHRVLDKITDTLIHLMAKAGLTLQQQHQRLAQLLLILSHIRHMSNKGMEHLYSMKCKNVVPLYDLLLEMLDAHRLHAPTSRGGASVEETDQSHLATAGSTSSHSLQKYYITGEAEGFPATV
Description: Tritiated estradiol was obtained from Perkin Elmer and purified, full-length human estrogen receptor a from Invitrogen.
Competitive radiometric binding assays (RBA) were performed on 96-well microtiter filter plates (Millipore), using full length human estrogen receptor a, with tritiated estradiol as tracer, as previously described (Carlson K E, Choi I, Gee A, Katzenellenbogen B S, Katzenellenbogen J A. Altered ligand binding properties and enhanced stability of a constitutively active estrogen receptor: evidence that an open pocket conformation is required for ligand interaction. Biochemistry 1997, 36(48), 14897-14905). After incubation on ice for 18-24 h, ERα-bound tracer was absorbed onto hydroxyapatite (BioRad), washed with buffer, and measured by scintillation counting. RBA values are the average SD of 2-3 determinations.

[2] = Cell proliferation assay (WST-1), 6-day exposure; format: cell-based; settings: 144 h, read-out: Antiproliferation IC50
Description: Cell proliferation assay: WST-1 assay (Roche, Basel, Switzerland) was used to quantify cell viability after a 6-day exposure to compounds, as described in Gong et al. Mol. Cell. Endocrinol. 2016, 437, 190-200. Absorbance was measured at 450 nm using a VICTOR X5 PerkinElmer 2030 Multilabel Plate Reader, and cell proliferation values represent signal from compound-treated samples relative to vehicle-treated controls. All assays were performed in triplicate, and the values shown are the average SD of 2-3 independent experiments.

D538G cl. 65 = assay: Cell proliferation assay (Resazurin); format: cell-based
Description: (§1) Cell proliferation assays were performed to determine the efficacy of the compounds at inhibiting ER or its mutants' ability at promoting cell proliferation.
(§2) Cells were plated at 1500 cells/well into 96-well culture plates in regular media, treated with the indicated doses of the compounds or Fulvestrant the next day and incubated in a humidified incubator with 5% CO2 at 37° C. They were assayed for cell proliferation at Day 0, 3, 5 and 7 using the Resazurin reagent (R&D Systems), which upon addition, culture plates were incubated at 37° C. incubator for 4 hours before their fluorescence were read at 560 nm excitation and 590 nm emission wavelengths with a microtiter plate reader (Molecular Devices).

MCF7 = assay: Cell proliferation assay (Resazurin); format: cell-based; settings: Homo sapiens
Description: as §1, §2

Y537S cl. 24 = assay: Cell proliferation assay (Resazurin); format: cell-based
Description: as §1, §2

HA-ERα D538G = target: T2, HA-ERα D538G (Homo sapiens, UniProt P03372, D538G); assay: Luciferase assay, overexpressed ER (3×-ERE-TATA-Luciferase reporter); format: cell-based; settings: for inhibition at 1 µM: compound concentration 1 μM, 24 hours
T2 construct: HA; expressed in transfected cells
T2 sequence (P03372 1-595 D538G): T1 sequence (P03372 1-595) with D538G
Description: (§3) Luciferase assays were performed to determine the efficacy of the example compounds at inhibiting ER or its mutants' ability to activate transcription of genes.
(§4) Cells were plated at a density of 0.15×10^6 per well of 24 well plates one day prior to transfection. Cells were transfected with 125 ng (per well) of HA-ERα wild type or mutants, 315 ng (per well) of 3×-ERE-TATA-Luciferase reporter and 50 ng (per well) of pRL-TK Renilla Luciferase plasmid, using Xtremegene (Roche). The cells were treated with the various compounds or Fulvestrant at the indicated doses a day after transfection for 24 hours and luciferase activities were determined using the Dual-Luciferase® Reporter Assay System (Promega) according to manufacturer's instructions. Luciferase bioluminescence measurements were performed with the Veritas™ Microplate Luminometer (Promega). All experiments were conducted in triplicate and the Firefly luciferase activity was normalized with the Renilla luciferase activity of each sample.

HA-ERα L536R = target: T3, HA-ERα L536R (Homo sapiens, UniProt P03372, L536R); assay: as above; format: cell-based; settings: for inhibition at 1 µM: compound concentration 1 μM, 24 hours
T3 construct: HA; expressed in transfected cells
T3 sequence (P03372 1-595 L536R): T1 sequence (P03372 1-595) with L536R
Description: as §3, §4

HA-ERα Y537S = target: T4, HA-ERα Y537S (Homo sapiens, UniProt P03372, Y537S); assay: as above; format: cell-based; settings: for inhibition at 1 µM: compound concentration 1 μM, 24 hours
T4 construct: HA; expressed in transfected cells
T4 sequence (P03372 1-595 Y537S): T1 sequence (P03372 1-595) with Y537S
Description: as §3, §4

HA-ERα wild type = target: T5, HA-ERα wild type (Homo sapiens, UniProt P03372); assay: as above; format: cell-based; settings: for inhibition at 1 µM: compound concentration 1 μM, 24 hours, read-out: Overexpressed ER (% Inhibition) WT
T5 construct: HA; expressed in transfected cells
T5 sequence (P03372 1-595): T1 sequence (P03372 1-595)
Description: as §3, §4

RBA (estradiol = 100) [1]	inhibition at 1 µM (HA-ERα D538G) [%]	inhibition at 1 µM (HA-ERα L536R) [%]	inhibition at 1 µM (HA-ERα Y537S) [%]	inhibition at 1 µM (HA-ERα wild type) [%]	SMILES	IC50 [2] [µM]	further results
14 ± 1					CC(C)C[C@H](NC(=O)OC(C)(C)C)C(=O)NCCCCOc1ccc(C(=C2C3CC4CC(C3)CC2C4)c2ccc(O)cc2)cc1 [Example 2, (S)-tert-Butyl (1-((4-(4-(adamantan-2-ylidene(4-hydroxyphenyl)methyl)-phenoxy)butyl)amino)-4-methyl-1-oxopentan-2-yl)carbamate]	0.036	
14 ± 4					CC(C)(C)OC(=O)N[C@@H](Cc1ccccc1)C(=O)NCCCCOc1ccc(C(=C2C3CC4CC(C3)CC2C4)c2ccc(O)cc2)cc1 [Example 3, (S)-tert-Butyl(1-((4-(4-(adamantan-2-ylidene(4-hydroxyphenyl)methyl)-phenoxy)butyl)amino)-1-oxo-3-phenylpropan-2-yl)carbamate]	0.007	
21 ± 6					O=C(NCCOc1ccc(C(=C2C3CC4CC(C3)CC2C4)c2ccc(O)cc2)cc1)C12CC3CC(CC(C3)C1)C2 [Example 4, N-(2-(4-(Adamantan-2-ylidene(4-hydroxyphenyl)methyl)phenoxy)ethyl)-adamantane-1-carboxamide]	0.017	
26 ± 6					O=C(NCCCOc1ccc(C(=C2C3CC4CC(C3)CC2C4)c2ccc(O)cc2)cc1)C12CC3CC(CC(C3)C1)C2 [Example 5, N-(3-(4-(Adamantan-2-ylidene(4-hydroxyphenyl)methyl)phenoxy)propyl)-adamantane-1-carboxamide]	0.009	
	95	94	95	96	O=C(NCCCCOc1ccc(Oc2c(-c3ccc(O)cc3)sc3cc(O)ccc23)cc1)[C@H]1CC[C@H](C(F)(F)F)CC1 [Example 17, (trans)-N-(4-(4-((6-Hydroxy-2-(4-hydroxyphenyl)benzo[b]thiophen-3-yl)oxy)phenoxy)butyl)-4-(trifluoromethyl)cyclohexanecarboxamide]		IC90 (D538G cl. 65): 315 nM; IC90 (MCF7): 22.1 nM; IC90 (Y537S cl. 24): 304 nM; IC90 (HA-ERα D538G; luciferase assay, Table 4): 175 nM; IC90 (HA-ERα L536R; luciferase assay, Table 4): 124 nM; IC90 (HA-ERα Y537S; luciferase assay, Table 4): 464 nM; IC90 (HA-ERα wild type; luciferase assay, Table 4): 19 nM
	65	69	-32	52	O=C(NCCCCOc1ccc(C(=C2CCCCC2)c2ccc(O)cc2)cc1)C12CC3CC(CC(C3)C1)C2 [Example 26, N-(4-(4-(Cyclohexylidene(4-hydroxyphenyl)methyl)phenoxy)-butyl)adamantane-1-carboxamide]		
	60	43	-64	13	O=C(NCCCCOc1ccc(Oc2c(-c3ccc(O)cc3)sc3cc(O)ccc23)cc1)C1CCC1 [Example 28, N-(4-(4-((6-Hydroxy-2-(4-hydroxyphenyl)benzo[b]thiophen-3-yl)oxy)phenoxy)butyl)cyclobutanecarboxamide]		
	73	90	1	39	O=C(NCCCCOc1ccc(Oc2c(-c3ccc(O)cc3)sc3cc(O)ccc23)cc1)C1CC(F)(F)C1 [Example 29, 3,3-Difluoro-N-(4-(4-((6-hydroxy-2-(4-hydroxyphenyl)benzo[b]thiophen-3-yl)oxy)phenoxy)butyl)cyclobutanecarboxamide]		
